The results in this text go back to US20190142721A1, “COMPOSITION CONTAINING SUBSTANCE FOR REGULATING EXPRESSON OF ABH ANTIGENS” (AMOREPACIFIC CORPORATION, priority 2014, published 2019).

Each structure is given as a SMILES string.

A word on the inhibition: it is the drop in the measured response relative to a control, in per cent.

For test [1], the target named is T1, 5α-reductase (Homo sapiens, UniProt P31213).
T1 construct: 3×FLAG; expressed in transfected cells; host or cells: HEK 293
T1 sequence (P31213 1-254): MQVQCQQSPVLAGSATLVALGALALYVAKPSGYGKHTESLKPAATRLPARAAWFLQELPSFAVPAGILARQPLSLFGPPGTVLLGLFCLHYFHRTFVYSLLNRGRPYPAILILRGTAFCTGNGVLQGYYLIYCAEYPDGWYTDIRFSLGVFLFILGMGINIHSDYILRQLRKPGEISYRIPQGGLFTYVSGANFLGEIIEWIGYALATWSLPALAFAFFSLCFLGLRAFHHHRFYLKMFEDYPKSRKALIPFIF
Briefly: Inhibitory effect on 5α-reductase activity: conversion of [14C]testosterone to [14C]dihydrotestosterone in HEK 293-5α R2 cells. The format is cell-based. The settings on record: for Conversion rate (%): radioactivity at DHT region/total radioactivity, control group 48; for Conversion rate (%) / Inhibition rate (%): 2 μg/ml, 2 hours, HEK 293-5α R2 cells; for Inhibition rate (%): relative to conversion rate of control group. As to the method:
In order to evaluate the inhibitory effect on the activity of 5α-reductase, the conversion rate from [^14C] testosterone to [^14C] dihydrotestosterone in HEK 293-5α R2 cells was measured. HEK 293 cells were transfected with p3×FLAG-CMV-5α R2, and the transfected HEK 293 cells (HEK 293-5α R2 cells) were seeded in a 24-well plate, 2.5×10^5 cells per well (Park et al., 2003, JDS. Vol. 31, pp 191-98). The next day, the used culture medium was replaced with a new culture medium containing an enzyme substrate and an inhibitor. The substrate of the culture medium used was 0.05 μCi [^14C]testosterone (Amersham Pharmacia Biotech, UK). […] At this time, for comparison, the negative control used was the group not containing any of the above test substances, while the positive control used was the group in which finasteride was added to the medium at 2 μg/ml and cultured under the same conditions. Subsequently, the culture medium was collected to extract estosterone with 800 μl of ethylacetate. The supernatant organic solvent phase was isolated and dried. The residue was dissolved in 50 μl of ethylacetate and developed on silica plastic sheet kieselgel 60 F254 using an ethylacetate-hexane (1:1) as a developing solvent. The plastic sheet was dried out in the air and measured in regards to the abundance of isotope using a BAS system. The dry plastic sheet together with an X-ray film was put in a bath cassette. After one week, the amount of isotope of testosterone and dihydrotestosterone remaining on the film was measured.

In test [2] the test system is B antigen (ABH antigen). The test is described as follows: Effect of increasing the expression of B antigen in HaCaT cell line (western blot). The format is cell-based. The settings on record: HaCaT cells, 2 μg/ml, 48 hours; for expression of B type antigen: western blot, FIG. 2; for expression of ABH antigen: data not shown. As to the method: The effect of various kinds of compounds on the expression of ABH antigen was examined. For this purpose, HaCaT cells (provided by Prof. Dr. N E Fusenig, DKFZ Heidelberg, Germany) were cultured in 10% FBS-DMEM for 24 hours in a 35 mm dish and then cultured in 0% FBS-DMEM for 24 hours to make to a starvation state.
Again, while replacing the medium with 0% FBS-DMEM, various kinds of compounds as test substances were treated with HaCaT cells at a concentration of 2 μg/ml, respectively, and cultured for 48 hours. At this time, for comparison, the control group was treated with DMSO at the same concentration as the sample. […] In case where these three compounds were treated, proteins were extracted from the cells, the cell lysate was loaded in the same amount, and then the expression of type B antigen was examined by western blot. Alpha-tubulin protein was used as a control group.
For orientation: Immunoblotting shows a protein as a band on a membrane.

The test system of test [3] is procollagen type(I). Briefly: Promotion of collagen biosynthesis in fibroblasts (procollagen type(I) ELISA). The format is cell-based. The settings on record: 2 μg/ml, 24 hours, untreated group as 100. On the procedure: The collagen biosynthesis promoting effect of 1,3-dicaffeoylquinic acid, 1,5-dicaffeoylquinic acid and amentoflavone used in the present invention was measured in comparison with TGF-β.
First, 1×10^5 cells of fibroblasts were seeded in each well of a 24-well plate and cultured until they grew to about 90%. This was cultured in a serum-free DMEM medium for 24 hours and then treated with 2 μg/ml of 1,3-dicaffeoylquinic acid, 1,5-dicaffeoylquinic acid, amentoflavone and TGF-β, respectively, and cultured for 24 hours in a CO2 incubator. These supernatant fluids were removed and the procollagen type(I) ELISA kit was used to observe whether procollagen was increased or decreased. The results are shown in Table 6, and the collagen synthesis ability was compared with the untreated group as 100.

Test [4] deals with skin pore size. The test is described as follows: Effect of reducing skin pores in rhino mice. The format is in vivo. The settings on record: 0.5 ml of 1% solution applied to rhino mice for 1 week; control group (solvent) 65. On the procedure: At this time, for comparison, only 0.5 ml of solvent was applied to one group. The substances were treated for 1 week and the back part was biopsied 24 hours after the last treatment. The epidermis was separated, immersed in 0.5% acetic acid, fixed in 10% formalin and cut vertically at […]. After staining with hematoxylin and eosin, the skin pore size was measured using a mechanical eyepiece micrometer.

Test [5] deals with reactive oxygen species (ROS). Briefly: Inhibition of formation of reactive oxygen species in UVB-exposed keratinocytes (DCF-DA fluorescence). The format is cell-based, human. To be noted: 2 μg/ml; for ROS, ratio to the ROS of the control group, 0 hr: 0 hr after exposure to 30 mJ/cm^2 of UVB, UVB + untreated 100; for ROS, ratio to the ROS of the control group, 2 hrs: 2 hrs after exposure to 30 mJ/cm^2 of UVB, UVB + untreated 325, untreated 244; for ROS, ratio to the ROS of the control group, 3 hrs: 3 hrs after exposure to 30 mJ/cm^2 of UVB, UVB + untreated 381, untreated 287. On the procedure:
5×10^4 cells of Keratinocytes isolated from the human epidermal tissue were put in each well of a 24-well plate and immobilized for 24 hours. After the culture medium was removed, 100 μl of phosphate buffered saline (PBS) solution was added to each well. The keratinocytes were exposed to 30 mJ/cm^2 of ultraviolet radiation under an ultraviolet B (UV B) lamp (Model: F15T8, UV B 15 W, Sankyo Denki Co., Ltd., Japan). Each well was removed of the PBS solution and then supplied with 200 μl1 of the keratinocyte culture medium. The well was treated with 2 μg/ml of 1,3-dicaffeoylquinic acid, 1,5-dicaffeoylquinic acid and amentoflavone as the test substances, respectively. Then, the quantity of the reactive oxygen species (ROS) increased by the UV stimulation was determined at defined time intervals. At this time, for comparison, the quantity of reactive oxygen species was also measured for those not treated with test substance (untreated) and not stimulated with ultraviolet rays and those subjected to ultraviolet stimulation without treatment of the test substance. The quantity of ROS was quantified by referring to Tan's method for measuring the fluorescence of dichlorofluorescin diacetate (DCF-DA) oxidized by ROS (Tan et al., 1998, J. Cell Biol. Vol. 141, pp 1423-1432).

The test system of test [6] is PGE-2. Briefly: Decrease in expression of skin inflammatory factor PGE-2 in UVB-exposed keratinocytes (ELISA). The format is cell-based, human. The settings on record: 2 μg/ml, 16 hours, keratinocytes after UVB exposure. On the procedure:
In order to measure the effect of suppressing the expression of PGE-2 which is a skin inflammatory factor of 1,3-dicaffeoylquinic acid, 1,5-dicaffeoylquinic acid and amentoflavone of the present invention, ELISA (Enzyme Linked ImmunoSorbent Assay) was performed (S E Dunsmore, et al., J Biol Chem, 271: 24576-24582, 1996).
5×10^4 cells of keratinocytes isolated from human epidermal tissue were put in each well of a 24-well plate and immobilized for 24 hours. The culture medium was replaced with a medium not containing FBS and treated with aspirin to remove the activity of prostaglandin biosynthetic enzyme (prostaglandin H2 synthetase, or cyclooxygenase). Two hours after aspirin treatment, each well containing keratinocytes was washed twice with PBS to which 100 μl of PBS was added to each well. The keratinocytes were exposed to […] of ultraviolet radiation under an ultraviolet B (UV B) lamp (Model: F15T8, UV B15W, Sankyo Dennki, Japan). Each well was removed of PBS and supplied with 250 ul of the keratinocyte growth media (Clonetics BioWhittacker, MD, USA).
Here, the substances 1,3-dicaffeoylquinic acid, 1,5-dicaffeoylquinic acid and amentoflavone were treated at a dose of 2 μg/ml, followed by culturing for 16 hours. By taking an appropriate amount of culture supernatant and quantifying PGE-2 biosynthesized for 16 hours, the prostaglandin inhibitory effects of 1,3-dicaffeoylquinic acid, 1,5-dicaffeoylquinic acid and amentoflavone was evaluated. The expression inhibitory effect of PGE-2 was calculated by the following mathematical formula 1, and the results are shown in Table 4 below.
Expression inhibition rate of PGE-2(%)=(A−B)/A*100 [Mathematical Formula 1]
A: Absorbance of well to which test substance was not added
B: Absorbance of the well to which test substance was added
For orientation: ELISA stands for enzyme-linked immunosorbent assay.

Take `CC(C)(C)NC(=O)[C@H]1CC[C@H]2[C@@H]3CC[C@H]4NC(=O)C=C[C@]4(C)[C@H]3CC[C@]12C` [Finasteride, finasteride, reference compound]: the “Conversion rate (%)” value in test [1] is listed as 27%.

Regarding `O=C(/C=C/c1ccc(O)c(O)c1)O[C@@H]1C[C@](OC(=O)/C=C/c2ccc(O)c(O)c2)(C(=O)O)C[C@@H](O)[C@H]1O` [1,5-dicaffeoylquinic acid], in test [2], the “expression of B type antigen” value is reported as “increasing the expression of B type antigen” and the “expression of ABH antigen” value is “significantly increase the expression of ABH antigen”. Also, in test [3], the “Collagen synthesis ability (%)” value is recorded as 144.2 ± 11.0%. Further, in test [4], the Skin Pore size (µm) came to 54 µm. In addition, in test [5], the “ROS, ratio to the ROS of the control group, 0 hr” value (shortened to “ROS, ratio to the ROS … 0 hr”) is listed as 100; the “ROS, ratio to the ROS of the control group, 2 hrs” value (from here on “ROS, ratio to the ROS … 2 hrs”) worked out at 280; the “ROS, ratio to the ROS of the control group, 3 hrs” value (from here on “ROS, ratio to the ROS … 3 hrs”) was determined as 315. In addition, in test [1], the “Inhibition rate (%)” value was 38% and the “Conversion rate (%)” value amounted to 30%. Besides, the “PGE-2 expression inhibition rate(%)” value in test [6] was 32.5%.

Consider `O=C(O[C@@H]1Cc2c(O)cc(O)cc2O[C@@H]1c1cc(O)c(O)c(O)c1)c1cc(O)c(O)c(O)c1` [EGCG, reference compound], for which the Skin Pore size (µm) in test [4] worked out at 60 µm.

Take `O=c1cc(-c2ccc(O)c(-c3c(O)cc(O)c4c(=O)cc(-c5ccc(O)cc5)oc34)c2)oc2cc(O)cc(O)c12` [amentoflavone]: in test [2], the “expression of B type antigen” value is on record as “increasing the expression of B type antigen” and the “expression of ABH antigen” value is listed as “significantly increase the expression of ABH antigen”. Besides, the “Collagen synthesis ability (%)” value in test [3] is on record as 147.7 ± 15.8%. The compound further displayed a Skin Pore size (µm) in test [4] of 50 µm. Moreover, in test [5], the “ROS, ratio to the ROS … 0 hr” value is reported as 100; the “ROS, ratio to the ROS … 2 hrs” value came out at 288; the “ROS, ratio to the ROS … 3 hrs” value is listed as 320. For the same compound, the inhibition at 2 µg/mL in test [1] (HEK2935, read-out: Inhibition rate (%)) amounted to 33%. Besides, in test [1], the “Conversion rate (%)” value worked out at 32%. The “PGE-2 expression inhibition rate(%)” value in test [6] was 30.9%.

For `O=C(/C=C/c1ccc(O)c(O)c1)OC1CC(OC(=O)/C=C/c2ccc(O)c(O)c2)(C(=O)O)CC(O)C1O` (centres unmarked) [1,3-dicaffeoylquinic acid], in test [2], the “expression of B type antigen” value is “increasing the expression of B type antigen” and the “expression of ABH antigen” value was “significantly increase the expression of ABH antigen”. For the same compound, the “Collagen synthesis ability (%)” value in test [3] was 142.1 ± 13.1%. This compound also had a Skin Pore size (µm) in test [4] of 53 µm. Besides, in test [5], the “ROS, ratio to the ROS … 0 hr” value was found to be 100; the “ROS, ratio to the ROS … 2 hrs” value stood at 277; the “ROS, ratio to the ROS … 3 hrs” value is on record as 319. Also, in test [1], the “Inhibition rate (%)” value is 38% and the “Conversion rate (%)” value came out at 30%. Also, in test [6], the “PGE-2 expression inhibition rate(%)” value stood at 28.1%.
